The values below come from patent publication US10590145B2, “Tetrahydrothiopyranopyrimidine derivatives as anti-HIV agent” (SHANDONG UNIVERSITY, priority 2016, dated 2020).

Data set [1] deals with HIV-1 K103N mutant strain. As to the kind of experiment: Anti-HIV-1 activity in MT-4 cells (MTT method), K103N. The following applies: Human immunodeficiency virus 1, MT4, read-out: EC50 (nM) K103N. Type of data set: cell-based. How it is done: (§1) Selected compounds were screened for inhibitory activity against HIV-1 using MTT method as describe previously by Christophe. Pannecouque et al. Nat. Protoc. 3 (2008) 427-434, and Rudi Pauwels et al. J. Virol. Methods 20 (1988) 309-321. Briefly, MT-4 cells infected with HIV-1 can only survive for 5 to 7 days without any treatment, but when HIV-1 inhibitors were added, they can protect MT-4 cell from cytopathic. Serial solution of compounds was added to MT-4 cells after infected with HIV-1, MTT method was used to detect the survival rate after culture for 5 to 7 days. EC50 value was defined as compound concentration required to achieve 50% protection of MT-4 cells against HIV-1-induced cytopathic effect. In vitro anti-HIV-1 assay was supported by Rega Institute for Medical Research.
(§2) • (1) MT-4 cells infected with HIV-1 viral strains (IIIB, L100I, K103N, Y181C, Y188L, E138K, F227L/V106A, Y181C/K103N) were provided by Rega Institute for Medical Research, Katholieke Universiteit Leuven, Belgium. • (2) MTT and formazan: sigma Chemical Co. • (3) Preparation of compounds: Stock solutions (10×final concentration) of test compounds is diluted with double distilled water for 5 folds and 5 concentrations of one compound are prepared. • (4) Reference drugs: Nevirapine (NVP), Efavirenz (EFV), Etravirine (ETV), Rilpivirine (RPV) and Azidothymidine (AZT). • (5) Method (MTT method): Serial five-fold dilutions of test compounds were added to cultured MT-4 cells infected with HIV-1, after 5 to 7 days, MTT was added and cultured for a few hours. Medium was removed and lysate was added followed by formazan, OD value was determined in 690 nm and 540 nm by microplate reader, and EC50 value was calculated. 2. Method
(§3) The MTT method was described briefly as follows: 96-well plastic microtiter trays were filled with 100 μL of complete medium. Subsequently, serial of tested compounds was added (25 μL) to two series of triplicate wells so as to allow simultaneous evaluation of their effects on HIV- and mock infected cells. 50 μL of 1×10^4 cells/mL MT-4 cells were added. After cultured for 5 days at 37° C. in humidified atmosphere in the presence of 5% CO2, MTT was added and cultured for another 2 h, then medium was removed and 100 μL isopropanol solution was added to lyse the cells. Formazan crystals were added and vibrated platform shaker for 10 min to solubilize the formazan crystals. Absorbances at 690 nm and 540 nm were read by using spectrophotometrically. EC50 was defined as the concentration achieving 50% protection from the cytopathic effect of the virus in infected cells.
(§4) Selected compounds prepared as described above were assayed in MT-4 cells infected with wide-type IIIB, L100I, K103N, Y181C, Y188L, E138K or double mutant RES056 (Y181C/K103N) and F227L/V106A HIV-1 strains. Nevirapine, Efavirenz, Etravirine, Rilpivirine and Azidothymidine were selected as reference drugs. The results were listed below as EC50 value (nM)
Background: Formazan colour is commonly taken as a measure of viable cells.

Data set [2] deals with HIV-1 F227L/V106A double mutant strain. As to the kind of experiment: Anti-HIV-1 activity in MT-4 cells (MTT method), F227L/V106A. It counts as cell-based. The following applies: Human immunodeficiency virus 1, MT4, read-out: EC50 (nM) F227L/V106A. How it is done:
as §1, §2, §3, §4

Data set [3] concerns HIV-1 Y181C mutant strain. As to the kind of experiment: Anti-HIV-1 activity in MT-4 cells (MTT method), Y181C. Type of data set: cell-based. Particulars: Human immunodeficiency virus 1, MT4, read-out: EC50 (nM) Y181C. Here is the method:
as §1, §2, §3, §4

Data set [4] concerns HIV-1 double mutant RES056 (Y181C/K103N). As to the kind of experiment: Anti-HIV-1 activity in MT-4 cells (MTT method), RES056. Type of data set: cell-based. The following applies: Human immunodeficiency virus 1, MT4, read-out: EC50 (nM) Y181C/K103N. How it is done: as §1, §2, §3, §4
In data set [5] the test system is wide-type HIV-1 (strain IIIB). As to the kind of experiment: Anti-HIV-1 activity in MT-4 cells (MTT method), wild-type. Type of data set: cell-based. Here is the method: as §1, §2, §3, §4
Data set [6] relates to HIV-1 E138K mutant strain. As to the kind of experiment: Anti-HIV-1 activity in MT-4 cells (MTT method), E138K. It counts as cell-based. Particulars: Human immunodeficiency virus 1, MT4, read-out: EC50 (nM) E138K. Here is the method: as §1, §2, §3, §4
The test system of data set [7] is HIV-1 L100I mutant strain. The data set is described as follows: Anti-HIV-1 activity in MT-4 cells (MTT method), L100I. Type of data set: cell-based. Particulars: Human immunodeficiency virus 1, MT4, read-out: EC50 (nM) L100I. Here is the method: as §1, §2, §3, §4
For data set [8], the system named is HIV-1 Y188L mutant strain. As to the kind of experiment: Anti-HIV-1 activity in MT-4 cells (MTT method), Y188L. Type of data set: cell-based. The following applies: Human immunodeficiency virus 1, MT4, read-out: EC50 (nM) Y188L. How it is done: as §1, §2, §3, §4

SMILES strings stand for the structures. Some results are limits rather than exact numbers.

The melting point is the temperature of the solid-liquid transition. Take `Cc1cc(C#N)cc(C)c1Oc1nc(Nc2ccc(C#N)cc2)nc2c1S(=O)(=O)CCC2` [IA-1-4, 4-((2-((4-cyanophenyl)amino)-5,5-dioxido-7,8-dihydro-6H-thiopyrano[3,2-d]pyrimidin-4-yl)oxy)-3,5-dimethylbenzonitrile]: the melting point lay in the range of 263 to 265 °C. In addition, in data set [1], the EC50 was under 10 nM. Besides, in data set [2], the EC50 lay within 10 to 100 nM. Also, in data set [3], the EC50 fell in the range of 10 to 100 nM. The EC50 in [4] is 10 to 100 nM. Moreover, the EC50 in data set [5] (Human immunodeficiency virus 1, IIIB, MT4, read-out: EC50 (nM) wt) is under 10 nM. In [5] (wide-type HIV-1, relative to NVP), the “Activity against wide-type HIV-1, folds better than NVP” value turned out to be 30 folds. Moreover, in [5] (wide-type HIV-1, relative to RPV), the “Activity against wide-type HIV-1 compared with RPV” value is “comparable”. In data set [6], the EC50 lay in the range of 10 to 100 nM. The EC50 in data set [7] fell in the range of 10 to 100 nM. For the same compound, the EC50 in data set [8] was in the range of 10 to 100 nM.
